Results from the supplement of paper PMC8671470.

Key:
Conditions in all cases: 72 h
[1] = test system: BV-173
Method in brief: (§1)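 The IC50 was read from log-logistic dose–response fits. Fifteen myeloid leukaemia lines were exposed for 72 h at 37 °C with 5% CO2 to five tenfold doses from 1 to 10,000 nM in duplicate. ATP luminescence, normalised to vehicle and to a 10 µM positive control, was fitted with four parameters.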

[2] = test system: HEL
Method in brief: as §1

[3] = test system: HL-60
Method in brief: as §1

[4] = test system: K-562
Method in brief: as §1

[5] = test system: KCL-22
Method in brief: as §1

[6] = test system: KG-1
Method in brief: as §1

[7] = test system: KU-812
Method in brief: as §1

[8] = test system: LAMA-84
Method in brief: as §1

[9] = test system: ML-2
Method in brief: as §1

[10] = test system: MOLM-13
Method in brief: as §1

[11] = test system: MV4-11
Method in brief: as §1

[12] = test system: Mono-Mac-6
Method in brief: as §1

[13] = test system: NOMO-1
Method in brief: as §1

[14] = test system: SHI-1
Method in brief: as §1

[15] = test system: THP-1
Method in brief: as §1

[16] = test system: HL-60; experiment: cell viability (% survival relative to DMSO control); higher = less cytotoxic
Method in brief: (§2)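 A rescreen of the full library used HL-60 cells in RPMI 1640 with 10% FBS on 384-well plates, run in duplicate at five tenfold concentrations (1–10,000 nM). Each screen included DMSO or 100 nM of one of three metabolic inhibitors and ran 72 h at 37 °C, 5% CO2. CellTiter-Glo viability was scaled between DMSO and 10 μM proteasome-inhibitor wells. Any area under the curve comes from four-parameter log-logistic fits with drc and PharmacoGx.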

[17] = test system: BV-173; experiment: cell viability (% survival relative to DMSO control, bortezomib = 0%); higher = less cytotoxic
Method in brief: (§3)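 Seeding density for each of the 10 AML and 5 CML cell lines was titrated to the linear growth range. Cells went into 384-well plates pre-printed in duplicate with compounds at 1, 10, 100, 1000 or 10000 nM and were held for 72 h at 37 °C with 5% CO2. CellTiter-Glo luminescence then provided the readout. Percent survival is expressed relative to vehicle at 100% and a 10 µM positive control at 0%, averaged over duplicates.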

[18] = test system: HEL; experiment: as above
Method in brief: as §3

[19] = test system: HL-60; experiment: as above
Method in brief: as §3

[20] = test system: K-562; experiment: as above
Method in brief: as §3

[21] = test system: KCL-22; experiment: as above
Method in brief: as §3

[22] = test system: KG-1; experiment: as above
Method in brief: as §3

[23] = test system: LAMA-84; experiment: as above
Method in brief: as §3

[24] = test system: ML-2; experiment: as above
Method in brief: as §3

[25] = test system: MV4-11; experiment: as above
Method in brief: as §3

[26] = test system: Mono-Mac-6; experiment: as above
Method in brief: as §3

[27] = test system: SHI-1; experiment: as above
Method in brief: as §3

[28] = test system: HL-60; experiment: area under dose-response curve (viability, 1 nM-10 uM) (fraction (0-1)); higher = more sensitive
Method in brief: as §2

COc1cc(C2Oc3cc(C4Oc5cc(O)cc(O)c5C(=O)C4O)ccc3OC2CO)ccc1O (configuration not stated) [Silibinin]
Conditions	IC50 (cell viability) [µM]
[1]	> 10
[2]	> 10
[3]	> 10
[4]	> 10
[5]	> 10
[6]	> 10
[7]	> 10
[8]	> 10
[9]	> 10
[10]	> 10
[11]	> 10
[12]	> 10
[13]	> 10
[14]	> 10
[15]	> 10

cell viability [%], [16]
Conditions	0.001 µM	0.01 µM	0.1 µM	1 µM	10 µM
co-treatment: AZD3965 100 nM	107	99.1	107	102	102
co-treatment: DMSO vehicle	100	100.8	104	102	97.72
co-treatment: GSK2194069 100 nM	107	101	105	105	97.3
co-treatment: pictilisib 100 nM	103	103	107	106	95.8

Conditions	area under dose-response curve, co-treatment: AZD3965 100 nM	area under dose-response curve, co-treatment: DMSO vehicle	area under dose-response curve, co-treatment: GSK2194069 100 nM	area under dose-response curve, co-treatment: pictilisib 100 nM	cell viability, 1 nM [%]	cell viability, 10 nM [%]	cell viability, 100 nM [%]	cell viability, 1000 nM [%]	cell viability, 10000 nM [%]
[17]	–	–	–	–	90.9	93.5	110	95.2	87.2
[18]	–	–	–	–	101	100	115	89.2	103
[19]	–	–	–	–	91.9	92.9	96.9	105	104
[20]	–	–	–	–	95	97.7	102	94.5	76.4
[21]	–	–	–	–	99.3	95.3	84.2	102	95.1
[22]	–	–	–	–	91.3	104	99.2	94.3	93.8
[23]	–	–	–	–	98.1	102	110	95.6	95
[24]	–	–	–	–	93	99.2	87.2	95.8	91.1
[25]	–	–	–	–	100	95.7	97.2	110	98.8
[26]	–	–	–	–	96.4	91.2	94.1	99	98.9
[27]	–	–	–	–	102	107	89.3	98.6	105
[28]	< 0.0301	< 0.0301	< 0.0301	< 0.0301	–	–	–	–	–

Fc1ccc(CNc2ncnc3ccc(F)cc23)cc1 [Spautin 1]
Conditions	IC50 (cell viability) [µM]
[1]	2.75
[2]	9.11
[3]	9.64
[4]	1.34
[5]	> 10
[6]	1.57
[7]	1.39
[8]	1.49
[9]	> 10
[10]	> 10
[11]	1.52
[12]	> 10
[13]	> 10
[14]	> 10
[15]	> 10

cell viability [%], [16]
Conditions	0.001 µM	0.01 µM	0.1 µM	1 µM	10 µM
co-treatment: AZD3965 100 nM	78.7	99.98	101	103	71.3
co-treatment: DMSO vehicle	98.11	97.89	109	96.7	78.31
co-treatment: GSK2194069 100 nM	91.31	100	104	89.5	58
co-treatment: pictilisib 100 nM	100	96.8	108	98.7	80.4

Conditions	area under dose-response curve, co-treatment: AZD3965 100 nM	area under dose-response curve, co-treatment: DMSO vehicle	area under dose-response curve, co-treatment: GSK2194069 100 nM	area under dose-response curve, co-treatment: pictilisib 100 nM	cell viability, 1 nM [%]	cell viability, 10 nM [%]	cell viability, 100 nM [%]	cell viability, 1000 nM [%]	cell viability, 10000 nM [%]
[17]	–	–	–	–	98.3	96.8	110	79.7	35.1
[18]	–	–	–	–	91.3	98.3	94.1	89.4	47.9
[19]	–	–	–	–	105	102	110	117	47.4
[20]	–	–	–	–	103	97	100	69.8	16.9
[21]	–	–	–	–	112	113	108	88.6	61.9
[22]	–	–	–	–	108	98.5	103	66.8	32.6
[23]	–	–	–	–	103	103	93.5	66.4	26.7
[24]	–	–	–	–	108	84.7	97	87.9	63.2
[25]	–	–	–	–	98.8	92.4	102	64.7	33
[26]	–	–	–	–	109	96.1	119	106	59
[27]	–	–	–	–	113	100	106	95.9	62.2
[28]	< 0.0301	0.0409	0.0623	0.0324	–	–	–	–	–

Cn1c2cc(S(C)=O)sc2c2cnn(Cc3cccc(N)c3)c(=O)c21 (configuration not stated) [TEPP-46]
Conditions	IC50 (cell viability) [µM]
[1]	> 10
[2]	> 10
[3]	> 10
[4]	> 10
[5]	> 10
[6]	> 10
[7]	> 10
[8]	> 10
[9]	> 10
[10]	> 10
[11]	> 10
[12]	> 10
[13]	> 10
[14]	> 10
[15]	> 10

cell viability [%], [16]
Conditions	0.001 µM	0.01 µM	0.1 µM	1 µM	10 µM
co-treatment: AZD3965 100 nM	98.7	108	113	102	100
co-treatment: DMSO vehicle	99.6	103	104	104	107
co-treatment: GSK2194069 100 nM	97.7	106	97.1	104	101
co-treatment: pictilisib 100 nM	87.3	106	112	98.02	95.3

Conditions	area under dose-response curve, co-treatment: AZD3965 100 nM	area under dose-response curve, co-treatment: DMSO vehicle	area under dose-response curve, co-treatment: GSK2194069 100 nM	area under dose-response curve, co-treatment: pictilisib 100 nM	cell viability, 1 nM [%]	cell viability, 10 nM [%]	cell viability, 100 nM [%]	cell viability, 1000 nM [%]	cell viability, 10000 nM [%]
[17]	–	–	–	–	108	84.1	102	106	76.8
[18]	–	–	–	–	118	96.2	100	99.1	84
[19]	–	–	–	–	104	81.9	98.8	113	105
[20]	–	–	–	–	112	92.1	101	111	81.8
[21]	–	–	–	–	109	96.8	97.2	111	87.8
[22]	–	–	–	–	116	99.9	102	93.5	85.1
[23]	–	–	–	–	106	98.2	98.2	97.4	90.6
[24]	–	–	–	–	116	98.9	102	108	91.7
[25]	–	–	–	–	105	100	94.1	103	69.3
[26]	–	–	–	–	102	106	103	102	83
[27]	–	–	–	–	125	101	105	96.5	95.3
[28]	< 0.0301	< 0.0301	< 0.0301	< 0.0301	–	–	–	–	–
